Tests used:
[1] = system: Rabbit Dry-eye Syndrome Model, which was Induced by Trigeminal Denervation; assay: Keratoepithelial lesion score in rabbit dry-eye syndrome model induced by trigeminal denervation (Test Example 2); type: in vivo, male Japanese albino rabbits (Std:JW/CSK); conditions: for Keratoepithelial lesion: score 0-4 by stained area (Table 2), 5 eyes
Procedure: Fifteen male Japanese albino rabbits (Std:JW/CSK) were used.
(2) Generating Rabbit Dry-eye Syndrome Model by Trigeminal Denervation.
Urethane (ALDRICH) was administered i.p. at the dose of 1 g/kg to the rabbits of which occipital hair had been shaved.
After disinfecting of the shaved area, midline incision of the skin was made from the frontal bone to the ear root, and the muscular tissue around the periosteum, temporal bone and manidibular articular process were detached. After the detachment, a hole of 2×1.5 cm in size was made in the bone from the parietal medial region to the temporal region by means of the bone drill (URAWA KOGYO Co., Ltd. MINITOR C-130) under the surgical microscope (KONAN CAMERA R&I Inc., PMO-50). Then, the dura was detached from the cranial bone while cotton bud was kept inserted between the temporal bone and the dura. After the detachment was made up to the cranial base, detachment was further made toward the medial border of the petrous part of temporal bone in the carnial cavity, to find the trigeminal nerve in the petrous part. Then, the dura of about 1 to 2 mm on the nasal side of the semilunar ganglion was incised. After the incision, the two branches of nerve fascicle, i.e. the first branch (ocular nerve) of the trigeminal nerve and the second branch (maxillary nerve) were pulled laterally and cut with corneoscleral scissors. Immediately after the operation, miosis of the ipsilateral eye was confirmed and then the cotton kept inserted was removed, and the skin at the head was closed with suture. After the operation, an antibiotic (MYCILLIN SQL® Meiji) was administered i.m. at the dose of 0.1 ml/kg.
The trigeminal denervation was made only on the left eye side, while on the right eye side, no trigeminal denervation nor sham operation was made.
(3) Method of Administration.
13,14-dihydro-15-keto-16,16-difluoro-PGE1 was used as an active ingredient of the present invention to prepare test eyedrops containing 0.0001% and 0.001% of the compound. As a control, the vehicle of the eyedrops without the active ingredient was used.
Each of the compositions was instilled to the eyes everyday at the volume of 30 μl/eye two times a day (at 10:00 and 18:00) for two weeks. Five eyes per each of the test groups and the control group were treated and then examined for the whole tear secretion, the basal tear secretion and the keratoepithelial lesion as follows.
iii) Keratoepithelial Lesion
Before the start of instillation (week 0) and 1, 2, and 3 weeks after the start, the keratoepithelial lesion was evaluated two hours after the first instillation on the day of examination.
Each animal was placed in a stainless steel fixator, and given instillation of 50 μl of the mixture of 1% rose bengal and 1% fluorescein to stain their keratoconjunctival epithelium.

normal rabbits = assay: Effect on whole tear secretion of normal rabbits (Schirmer's test, Test Example 1); type: in vivo, Male Japanese albino rabbits (Std:JW/CSK); conditions: for whole tear secretion: 30 μl/eye single instillation, 8 eyes
Procedure: Male Japanese albino rabbits (Std:JW/CSK) were used.
(2) Method of Administration
Ophthalmic solution comprising 0.001% of 13,14-dihydro-15-keto-16,16-difluoro-PGE1 as an active ingredient of the present invention was prepared and used as a test composition. As a control, the vehicle of said solution without the active ingredient was used.
Each of the compositions was instilled singly to eight eyes at the amount of 30 μl/eye. After the administration, the time course of the tear secretion change was examined according to the following method.
Before (0 hour) and 0.5, 2, 4, and 6 hours after the instillation, the whole tear secretion was determined.
Under no anesthetization, one edge of the Schirmer's test strip (Showa Yakuhin Kako Co., Ltd., Lot No. 70080) was inserted into the conjunctival sac of the each test animal. One minute after, the strip was removed and the length of the moisted part was read from the scale provided on the strip to determine the amount of whole tear secretion.

In the case of CCCCC(F)(F)C(=O)CCC1C(O)CC(=O)C1CCCCCCC(=O)O (stereo not shown) [13,14-dihydro-15-keto-16,16-difluoro-PGE1], the Keratoepithelial lesion ([1]; 0.0001% eyedrops 30 μl/eye two times a day for two weeks, week 1) is reported as 1.00 ± 0.27^[*^]++ score, the Keratoepithelial lesion ([1]; 0.0001% eyedrops 30 μl/eye two times a day for two weeks, week 2) is reported as 0.50 ± 0.16^[*^]++ score and the Keratoepithelial lesion ([1]; 0.0001% eyedrops 30 μl/eye two times a day for two weeks, week 3) is reported as 0.40 ± 0.19^#++ score. The Keratoepithelial lesion ([1]; 0.001% eyedrops 30 μl/eye two times a day for two weeks, week 1) was 0.70 ± 0.34^++ score, the Keratoepithelial lesion ([1]; 0.001% eyedrops 30 μl/eye two times a day for two weeks, week 2) was 0.10 ± 0.10^[++] score and the Keratoepithelial lesion ([1]; 0.001% eyedrops 30 μl/eye two times a day for two weeks, week 3) was 0.10 ± 0.10^[##][++] score. The “keratoconjunctival lesion accompanied by the decrease of the tear secretion (result in words)” value ([1]; dry-eye syndrome model animals, 0.0001% and 0.001% eyedrops) was “improved”, the Keratoepithelial lesion ([1]; test group 0.0001% eyedrops, before administration (after operation, baseline)) was 3.00 ± 0.32^[**^] score and the Keratoepithelial lesion ([1]; test group 0.001% eyedrops, before administration (after operation, baseline)) was 3.00 ± 0.32^[**^] score. It also gave a whole tear secretion (normal rabbits; 0.001% ophthalmic solution, 0.5 hr after) of 17.0 ± 0.5 mm/min, a whole tear secretion (normal rabbits; 0.001% ophthalmic solution, 2 hr after) of 14.1 ± 0.5 mm/min and a whole tear secretion (normal rabbits; 0.001% ophthalmic solution, 4 hr after) of 11.7 ± 0.6 mm/min. The whole tear secretion (normal rabbits; 0.001% ophthalmic solution, 6 hr after) was 10.5 ± 1.0 mm/min, the “amount of whole tear secretion (result in words)” value (normal rabbits; 0.001% ophthalmic solution, versus control group) was “significant increase” and the “stimulating response, such as rubor in the front of the eye” value (normal rabbits; after instillation of 0.001% ophthalmic solution, 30 μl/eye) was “No stimulating response”. It also gave a whole tear secretion (normal rabbits; test group 0.001% ophthalmic solution, before the administration (baseline)) of 5.3 ± 0.2 mm/min.

Source: patent US7396946B2, “Compound for treatment of external secretion disorders” (Sucampo AG, priority 1999, dated 2008)
